The structures appear in SMILES notation.

Results on 16 compounds are retold here after US20220227789A1, “NOVEL INDOLIZINE-2-CARBOXAMIDES ACTIVE AGAINST THE HEPATITIS B VIRUS (HBV)” (AiCuris GmbH & Co. KG, priority 2019, published 2022).

In experiment [1] the target is T1, HBV core protein (C-terminal truncated, 149 aa assembly domain) (Hepatitis B virus genotype D subtype adw, UniProt P03147, C107A/C48A/C61A).
T1 construct: The C-terminal truncated core protein containing 149 amino acids of the N-terminal assembly domain; made in house; host or cells: E. coli BL21 (DE3) Rosetta2, plasmid pET21b
In words: Biochemical capsid assembly assay (fluorescence quenching). The note with it: BODIPY-FL labelled core protein, assembly started with NaCl, read after 6 min; read-out: Assembly Activity. As to the method:
Biochemical Capsid Assembly Assay
The screening for assembly effector activity was done based on a fluorescence quenching assay published by Zlotnick et al. (2007). The C-terminal truncated core protein containing 149 amino acids of the N-terminal assembly domain fused to a unique cysteine residue at position 150 and was expressed in E. coli using the pET expression system (Merck Chemicals, Darmstadt). Purification of core dimer protein was performed using a sequence of size exclusion chromatography steps. In brief, the cell pellet from 1 L BL21 (DE3) Rosetta2 culture expressing the coding sequence of core protein cloned NdeI/XhoI into expression plasmid pET21b was treated for 1 h on ice with a native lysis buffer (Qproteome Bacterial Protein Prep Kit; Qiagen, Hilden). After a centrifugation step the supernatant was precipitated during 2 h stirring on ice with 0.23 g/ml of solid ammonium sulfate. Following further centrifugation the resulting pellet was resolved in buffer A (100 mM Tris, pH 7.5; 100 mM NaCl; 2 mM DTT) and was subsequently loaded onto a buffer A equilibrated CaptoCore 700 column (GE HealthCare, Frankfurt). The column flow through containing the assembled HBV capsid was dialyzed against buffer N (50 mM NaHCO3 pH 9.6; 5 mM DTT) before urea was added to a final concentration of 3M to dissociate the capsid into core dimers for 1.5 h on ice. The protein solution was then loaded onto a 1 L Sephacryl 5300 column. After elution with buffer N core dimer containing fractions were identified by SDS-PAGE and subsequently pooled and dialyzed against 50 mM HEPES pH 7.5; 5 mM DTT. To improve the assembly capacity of the purified core dimers a second round of assembly and disassembly starting with the addition of 5 M NaCl and including the size exclusion chromatography steps described above was performed. From the last chromatography step core dimer containing fractions were pooled and stored in aliquots at concentrations between 1.5 to 2.0 mg/ml at −80° C.
Immediately before labelling the core protein was reduced by adding freshly prepared DTT in a final concentration of 20 mM. After […] on ice storage buffer and DTT was removed using a Sephadex G-25 column (GE HealthCare, Frankfurt) and 50 mM HEPES, pH 7.5. For labelling 1.6 mg/ml core protein was incubated at 4° C. and darkness overnight with BODIPY-FL maleimide (Invitrogen, Karlsruhe) in a final concentration of 1 mM. After labelling the free dye was removed by an additional desalting step using a Sephadex G-25 column. Labelled core dimers were stored in aliquots at 4° C. In the dimeric state the fluorescence signal of the labelled core protein is high and is quenched during the assembly of the core dimers to high molecular capsid structures. The screening assay was performed in black 384 well microtiter plates in a total assay volume of 10 μl using 50 mM HEPES pH 7.5 and 1.0 to 2.0 μM labelled core protein. Each screening compound was added in 8 different concentrations using a 0.5 log-unit serial dilution starting at a final concentration of 100 μM, 31.6 μM or 10 μM, In any case the DMSO concentration over the entire microtiter plate was 0.5%. The assembly reaction was started by the injection of NaCl to a final concentration of […] which induces the assembly process to approximately 25% of the maximal quenched signal. 6 min after starting the reaction the fluorescence signal was measured using a Clariostar plate reader (BMG Labtech, Ortenberg) with an excitation of 477 nm and an emission of 525 nm. As 100% and 0% assembly control HEPES buffer containing 2.5 M and 0 M NaCl was used. Experiments were performed thrice in triplicates. EC50 values were calculated by non-linear regression analysis using the Graph Pad Prism 6 software (GraphPad Software, La Jolla, USA).

The test system of experiment [2] is HBV. The experiment in a line: HBV replication assay: HBV DNA from the supernatants of HepAD38 cells. Type of experiment: cell-based. Conditions: Hepatitis B virus, 144 h, HBV DNA in supernatant by qPCR at day 6, read-out: Cell Activity. The procedure: Determination of HBV DNA from the Supernatants of HepAD38 Cells
The anti-HBV activity was analysed in the stable transfected cell line HepAD38, which has been described to secrete high levels of HBV virion particles (Ladner et al., 1997). In brief, HepAD38 cells were cultured at 37° C. at 5% CO2 and 95% humidity in 200 μl maintenance medium, which was Dulbecco's modified Eagle's medium/Nutrient Mixture F-12 (Gibco, Karlsruhe), 10% fetal bovine serum (PAN Biotech Aidenbach) supplemented with 50 μg/ml penicillin/streptomycin (Gibco, Karlsruhe), 2 mM L-glutamine (PAN Biotech, Aidenbach), 400 μg/ml G418 (AppliChem, Darmstadt) and 0.3 μg/ml tetracycline. Cells were subcultured once a week in a 1:5 ratio, but were usually not passaged more than ten times. For the assay 60,000 cells were seeded in maintenance medium without any tetracycline into each well of a 96-well plate and treated with serial half-log dilutions of test compound. To minimize edge effects the outer 36 wells of the plate were not used but were filled with assay medium. On each assay plate six wells for the virus control (untreated HepAD38 cells) and six wells for the cell control (HepAD38 cells treated with 0.3 μg/ml tetracycline) were allocated, respectively. In addition, one plate set with reference inhibitors like BAY 41-4109, entecavir, and lamivudine instead of screening compounds were prepared in each experiment. In general, experiments were performed thrice in triplicates. At day 6 HBV DNA from 100 μl filtrated cell culture supernatant (AcroPrep Advance 96 Filter Plate, […] Supor membran, PALL GmbH, Dreieich) was automatically purified on the MagNa Pure LC instrument using the MagNA Pure 96 DNA and Viral NA Small Volume Kit (Roche Diagnostics, Mannheim) according to the instructions of the manufacturer. EC50 values were calculated from relative copy numbers of HBV DNA In brief, 5 μl of the 100 μl eluate containing HBV DNA were subjected to PCR LC480 Probes Master Kit (Roche) together with 1 μM antisense primer […], 0.5 μM sense primer […], 0.3 μM hybprobes […]-FL and LC640-[…]-PH (TIBMolBiol, Berlin) to a final volume of […]. The PCR was performed on the Light Cycler 480 real time system (Roche Diagnostics, Mannheim) using the following protocol: Pre-incubation for 1 min at 95° C., amplification: 40 cycles×(10 sec at 95° C., 50 sec at 60° C., 1 sec at 70° C.), cooling for 10 sec at 40° C. Viral load was quantitated against known standards using HBV plasmid DNA of pCH-9/3091 (Nassal et al., 1990, Cell 63: 1357-1363) and the LightCycler 480 SW 1.5 software (Roche Diagnostics, Mannheim) and EC50 values were calculated using non-linear regression with GraphPad Prism 6 (GraphPad Software Inc., La Jolla, USA).
In general terms: Real-time PCR tracks product formation cycle by cycle.

T1 sequence (P03147 1-150, looked up, stated change not applied): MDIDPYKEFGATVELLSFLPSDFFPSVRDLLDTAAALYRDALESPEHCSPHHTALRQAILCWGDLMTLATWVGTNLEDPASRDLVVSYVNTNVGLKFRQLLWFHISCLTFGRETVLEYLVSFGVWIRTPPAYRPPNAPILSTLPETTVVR

Regarding `CC1Cc2[nH]nc(-c3cscn3)c2CN1C(=O)c1cc2ccc(Cl)cn2c1` (centres unmarked) [Example 21, 6-chloro-2-[6-methyl-3-(1,3-thiazol-4-yl)-1H,4H,5H,6H,7H-pyrazolo[4,3-c]pyridine-5-carbonyl]indolizine], the IC50 in experiment [1] is 5 to 10 µM. The EC50 in experiment [2] was less than 1 µM. The like results for `CC1Cc2[nH]nc(-c3cscn3)c2CN1C(=O)c1cc2c(Cl)cc(Cl)cn2c1` (centres unmarked) [Example 18, 6,8-dichloro-2-[6-methyl-3-(1,3-thiazol-4-yl)-1H,4H,5H,6H,7H-pyrazolo[4,3-c]pyridine-5-carbonyl]indolizine] were, in that order, 5 to 10 µM and less than 1 µM. The like results for `CC1Cc2[nH]nc(-c3cscn3)c2CN1C(=O)c1cc2cc(Cl)ccn2c1` (centres unmarked) [Example 19, 7-chloro-2-[6-methyl-3-(1,3-thiazol-4-yl)-1H,4H,5H,6H,7H-pyrazolo[4,3-c]pyridine-5-carbonyl]indolizine] were, in that order, 5 to 10 µM and less than 1 µM. The like results for `CC1Cc2[nH]nc(-c3cscn3)c2CN1C(=O)c1cc2c(F)cccn2c1` (centres unmarked) [Example 24, 8-fluoro-2-[6-methyl-3-(1,3-thiazol-4-yl)-1H,4H,5H,6H,7H-pyrazolo[4,3-c]pyridine-5-carbonyl]indolizine] were, in that order, less than 5 µM and less than 1 µM. `CC1Cc2[nH]nc(-c3cscn3)c2CN1C(=O)c1cc2cccc(C(F)(F)F)n2c1` (centres unmarked) [Example 12, 2-[6-methyl-3-(1,3-thiazol-4-yl)-1H,4H,5H,6H,7H-pyrazolo[4,3-c]pyridine-5-carbonyl]-5-(trifluoromethyl)indolizine]: the IC50 in experiment [1] is less than 100 µM. Moreover, the EC50 in experiment [2] was in the range of 1 to 10 µM. For `COCC1(N(C)C(=O)c2[nH]nc3c2CN(C(=O)c2cc4c(Cl)cccn4c2)CC3)CC1` [Example 3, 5-(8-chloroindolizine-2-carbonyl)-N-[1-(methoxymethyl)cyclopropyl]-N-methyl-2H,4H,5H,6H,7H-pyrazolo[4,3-c]pyridine-3-carboxamide] the same measures were less than 5 µM and less than 1 µM.

As for `CC1Cc2[nH]nc(-c3cscn3)c2CN1C(=O)c1cc2ccccn2c1` (centres unmarked) [Example 26, 2-[6-methyl-3-(1,3-thiazol-4-yl)-1H,4H,5H,6H,7H-pyrazolo[4,3-c]pyridine-5-carbonyl]indolizine], the IC50 in experiment [1] was less than 5 µM. In addition, the EC50 in experiment [2] was less than 1 µM.

With `CC1Cc2[nH]nc(-c3cscn3)c2CN1C(=O)c1cc2c(Cl)cccn2c1` (centres unmarked) [Example 10, 8-chloro-2-[6-methyl-3-(1,3-thiazol-4-yl)-1H,4H,5H,6H,7H-pyrazolo[4,3-c]pyridine-5-carbonyl]indolizine], in experiment [1], the IC50 was less than 5 µM. In experiment [2], the EC50 is less than 1 µM. On to `CN(C(=O)c1cnn2c1CN(C(=O)c1cc3c(F)cc(F)cn3c1)CC2)C1(COC(F)F)CC1` [Example 7, 5-(6,8-difluoroindolizine-2-carbonyl)-N-{1-[(difluoromethoxy)methyl]cyclopropyl}-N-methyl-4H,5H,6H,7H-pyrazolo[1,5-a]pyrazine-3-carboxamide], for which the IC50 in experiment [1] was less than 5 µM. The EC50 in experiment [2] is less than 1 µM. For `Cc1cccn2cc(C(=O)N3Cc4c(-c5cscn5)n[nH]c4CC3C)cc12` (centres unmarked) [Example 17, 8-methyl-2-[6-methyl-3-(1,3-thiazol-4-yl)-1H,4H,5H,6H,7H-pyrazolo[4,3-c]pyridine-5-carbonyl]indolizine] the same measures were less than 5 µM and less than 1 µM. With `CC(NC(=O)c1noc2c1CN(C(=O)c1cc3ccccn3c1)CC2)C(F)(F)F` (centres unmarked) [Example 51, 5-(indolizine-2-carbonyl)-N-(1,1,1-trifluoropropan-2-yl)-4H,5H,6H,7H-[1,2]oxazolo[4,5-c]pyridine-3-carboxamide], the IC50 in experiment [1] was less than 5 µM. The EC50 in experiment [2] is less than 1 µM.

Take `CC(NC(=O)c1onc2c1CN(C(=O)c1cc3ccccn3c1)CC2)C(F)(F)F` (centres unmarked) [Example 53, 5-(indolizine-2-carbonyl)-N-(1,1,1-trifluoropropan-2-yl)-4H,5H,6H,7H-[1,2]oxazolo[4,3-c]pyridine-3-carboxamide]: the IC50 in experiment [1] is less than 5 µM. Further, in experiment [2], the EC50 was less than 1 µM. The like results for `COCC1(N(C)C(=O)c2[nH]nc3c2CN(C(=O)c2cc4c(F)cc(F)cn4c2)CC3)CC1` [Example 5, 5-(6,8-difluoroindolizine-2-carbonyl)-N-[1-(methoxymethyl)cyclopropyl]-N-methyl-2H,4H,5H,6H,7H-pyrazolo[4,3-c]pyridine-3-carboxamide] were, in that order, less than 5 µM and less than 1 µM.

With `O=C(c1cc2c(Cl)cccn2c1)N1CCc2n[nH]c(C(=O)N3CC(F)(F)CC34CC4)c2C1` [Example 1, 8-chloro-2-(3-{6,6-difluoro-4-azaspiro[2.4]heptane-4-carbonyl}-2H,4H,5H,6H,7H-pyrazolo[4,3-c]pyridine-5-carbonyl)indolizine], the EC50 in experiment [2] fell in the range of 1 to 10 µM. As to `CC(NC(=O)c1cnn2c1CN(C(=O)c1cc3ccccn3c1)CC2)C(F)(F)F` (centres unmarked) [Example 50, 5-(indolizine-2-carbonyl)-N-(1,1,1-trifluoropropan-2-yl)-4H,5H,6H,7H-pyrazolo[1,5-a]pyrazine-3-carboxamide], the EC50 in experiment [2] was less than 1 µM. Same read-out and setting: the result for `CC(NC(=O)c1[nH]nc2c1CN(C(=O)c1cc3c(Cl)cccn3c1)CC2)C(F)(F)F` (centres unmarked) [Example 49, 5-(8-chloroindolizine-2-carbonyl)-N-(1,1,1-trifluoropropan-2-yl)-2H,4H,5H,6H,7H-pyrazolo[4,3-c]pyridine-3-carboxamide] reads 1 to 10 µM.
